Read-outs that look alike come from different tables or passages of the source.
Legend:
[1] = test system: carrageenan-based footpad-edema model; test: Carrageenan footpad edema model, 8-week orally fed mice; format: in vivo; conditions: 8 week oral treatment
Protocol: Experiments using the CFZ mice model were performed as published before (Baik et al., 2013, supra; Baik et al., 2012, supra; Keswani, R. K. et al. Mol. Pharm. 12, 2528-2536 (2015)). Mice (4 week old, male C57Bl/6) were purchased from the Jackson Laboratory (Bar Harbor, Me.) and acclimatised for 2 weeks in a specific-pathogen-free animal facility. All animal care was provided by the University of Michigan's Unit for Laboratory Animal Medicine (ULAM), and the experimental protocol was approved by the Committee on Use and Care of Animals. CFZ was dissolved in sesame oil (Roland, China, or Shirakiku, Japan) to achieve a concentration of 3 mg/ml, which was mixed with Powdered Lab Diet 5001 (PMI International, Inc., St. Louis, Mo.) to produce a 0.03% drug to powdered feed mix. A corresponding amount of sesame oil was mixed with chow for vehicle treatment (control).
Mice Carrageenan Footpad Edema Model. Carrageenan (C1867, Sigma-Aldrich®, 2% in PBS, 30 μl) was injected into the right footpad while PBS (30 μl) was injected in the left footpad as a negative control. For preliminary testing of CFZ as an anti-inflammatory agent, 8-week orally fed mice (CFZ and control) were used. For testing of CFZ in soluble and microcrystal form, naïve 4-5 week old mice were injected with carrageenan first followed by injection of CFZ-A (2 mM in DMSO, 30 μl), CLDIs (2 mM equivalent in PBS, 30 μl) or CFZ-HCl (2 mM equivalent in PBS, 30 μl) at 48 h post carrageenan injection. For control experiments, CFZ-A, CLDIs and CFZ-HCl were injected into the right footpads of naïve 4-5 week old mice. DMSO was used as a control for CFZ-A in the left footpad whereas PBS was used as a control for CLDIs and CFZ-HCl. Footpads were measured (length—l, width—w, three thicknesses—t1, t2, t3) at various time points using a digital vernier calliper and changes in the swelling based on volume of the foot was calculated as per above.

[2] = test system: alveolar macrophages; parameters: species or system mice; conditions: mouse, in vivo, 6 weeks
Protocol: Clofazimine (CFZ, Sigma-Aldrich, C8895) was prepared in sesame oil (Shirakiku, Japan, or Roland, China) and Powdered Lab Diet 5001 (PMI International, Inc., St. Louis, Mo.) and orally administrated to Wild-type (WT) C57BL/6 mice or IL-1RA^−/− (4-5 week old, Jackson Laboratory, Bar Harbor, Me.) for up to 8 weeks ad libitum as previously described (Baik et al., 2013, supra; Baik et al., 2011, supra). Control mice were fed with the same diet without CFZ. The animal protocol was approved by the University of Michigan's Animal Care and Use Committee in accordance with the National Institutes of Health guidelines (UCUCA #PRO0005111).
PBS/LPS-instilled CFZ- or control mice were euthanized by exsanguination while deeply anesthetized with an intraperitoneal injection of ketamine/xylazine. The trachea was surgically exposed and cannulated with an 18 G needle and the lungs were lavaged by instilling 1 ml DPBS (Life Technologies) containing 0.5 mM EDTA (Sigma). The retrieved BAL was then centrifuged (10 min at 400×g, 4° C.), and the supernatant was frozen (−80° C.), while the cell pellets were resuspended in 1 ml RPMI 1640 media (Life Technologies). To count total cells, the cells were stained with Trypan blue and counted using a hemocytometer. […]

Q: For `CC(C)/N=c1\cc2n(-c3ccc(Cl)cc3)c3ccccc3nc-2cc1Nc1ccc(Cl)cc1` [CFZ, 3-(p-chloroanilino)-10-(p-chlorophenyl)-2, 10-dihydro-2-isopropyliminophenazine], which “decrease of inflammation vs control diet” value ([1]; t=4 h) is on record?
A: The value was ~3 fold.

Q: What about the “decrease of inflammation vs control diet” value ([1]; t=24 h) of the same molecule?
A: Its value is ~14 fold.

Q: And the “decrease of inflammation vs control diet” value ([1]; t=48 h)?
A: The value was ~2 fold.

Q: What about the “CLDI+ alveolar macrophages” value ([2]; C57BL/6 (wild-type)) of the same molecule?
A: Its value is 65%.

Q: And the “CLDI+ alveolar macrophages” value ([2]; IL-1RA−/−)?
A: The value was 60%.
